Assay results published in publication PMC11859423, “Fluorescent Probes to Image the KCa3.1 Channel in Tumor Cells” (Pharmaceutics, 2025).
Values joined by “and” are separate entries in the source; they are usually repeats but may differ in a detail not shown here. Identical values can stand only once.

Assays:
[1] = target: T1, KCa3.1 channel in A549-3R cells (Homo sapiens, UniProt O15554); test: Blocking of staining by preincubation with senicapoc, fixed and living A549-3R cells (Protocols 3 and 4); format: cell-based; details: 30 µM senicapoc, 5 min, 4 °C
T1 construct: the non-small cell lung cancer cell line A549-3R with a high expression of the KCa3.1 channel was employed; endogenous in cells; host or cells: A549-3R cells
Procedure: After fixation of the cells (Section 2.10.2), 300 µL of a 30 µM solution of senicapoc blocking solution was added to the glass bottom dish. The glass bottom dish was incubated for 5 min at 4 °C. After incubation, the solution was removed and a mixture of 150 µL of 60 µM senicapoc solution and 150 µL of 20 µM staining solution were added to the glass bottom dish. The cells were incubated for 10 min at 4 °C in a dark chamber. Subsequently, the cells were washed five times with PBS and then used for fluorescence microscopy.
The cells were used without fixation. After incubating the cells for 24 h (Section 2.10.1), the medium was removed, and the cells were washed three times with 1 mL of PBS. Subsequently, the cells were stained as described in Protocol 3.
In order to show the specificity of labeling KCa3.1 channels by the fluorescent probe 10b, fixed and living cells were preincubated with 30 µM senicapoc (3) for 5 min at 4 °C. […] The complete blockade of the punctate staining pattern confirms that the KCa3.1 channel was labeled with probe 10b.

[2] = logD7.4 by micro shake flask method (n-octanol / MOPS buffer pH 7.4, LC-MS); format: physicochemical; details: read-out: logD7.4 ± SD (Micro Shake Flask)
Procedure: The logD7.4 values were recorded using the micro shake flask method. In this method, the test compound is distributed between n-octanol and MOPS buffer pH 7.4, and the amount of the compound in the buffer layer is determined by mass spectrometry.
The new fluorescent dyes were designed to increase the polarity and reduce the non-specific labeling of lipophilic membranes of cells. Moreover, a higher polarity should lead to increased water solubility and thus improved handling of the dyes. The logD7.4 value was recorded as a measure of the polarity/lipophilicity using our recently published micro-shake flask method. According to this method, the amount of compound in the aqueous 3-morpholinopropanesulfonic acid (MOPS) buffer pH 7.4 was determined by LC-MS [31, 32].

[3] = target: T1, KCa3.1 channel in A549-3R cells; test: Staining of permeabilized A549-3R cells (Protocol 5); format: cell-based
Procedure: After fixation of the cells (Section 2.10.2), 1 mL of permeabilization solution was added to the glass bottom dish. The cells were incubated for 30 min at 4 °C and afterwards washed three times with PBS. Subsequently, Protocol 1 was performed.
The specificity of the bodipy-labeled senicapoc derivative 10b was further analyzed via conducting co-staining experiments with antibodies. For staining with antibodies, A549-3R cells had to be permeabilized with saponin, since the antibody binds at the intracellular part of the ion channel only after entering the cell. […] For antibody-based immunofluorescence staining of the KCa3.1 channels of permeabilized A549-3R cells, various concentrations of the primary and secondary antibody were tested. Optimal images were obtained with a dilution of 1:300 for the primary antibody and 1:500 for the secondary antibody (see Figure S13, Supplementary Materials). The images obtained by immunofluorescence staining were analyzed as described above for the images with fluorescent probe 10b. This analysis led to a FWHM of 4.80 ± 0.83 pixels and a density of 1.75 ± 0.19 KCa3.1 channels/µm^2. […]

[4] = target: T1, KCa3.1 channel in A549-3R cells; test: Co-staining of permeabilized A549-3R cells with fluorescent probe and antibodies (Protocols 7a and 7b); format: cell-based; details: for Average Green (in % ± SD): green = channels stained with 10b; for Average Red (in % ± SD): red = channels stained with antibodies
Procedure: The cells were stained with antibodies as described in Protocol 6. Afterwards, the cells were stained with 300 µL of staining solution and the mixture was incubated for 10 min at 4 °C in a dark chamber. Subsequently, the cells were washed five times with 1 mL of PBS and were used for fluorescence microscopy.
The cells were treated as described in Protocol 5 to permeabilize the cells. Subsequently, staining solution was added and the cells were incubated for 10 min as described in Protocol 1. After washing the cells three times with PBS, Protocol 6 for the antibody staining was performed. Subsequently, the cells were used for fluorescence microscopy.
For the co-staining experiments, the permeabilized A549-3R cells were first incubated with the antibodies and subsequently stained with bodipy-labeled senicapoc derivative 10b for 10 min (protocol 7a). The images were analyzed with the FITC filter set to observe the fluorescence generated by 10b and the TRITC filter set to observe the fluorescence emitted by the secondary antibody (Figure 5). In a further experiment, the order of staining modalities was reversed, i.e., the cells were first labeled with fluorescent probe 10b for 10 min and second with the antibodies (Figure 6).
The obtained green, red and yellow dots were analyzed as described in the cell staining experiments above. The density of antibody-stained KCa3.1 channels (red dots) was higher than the density of KCa3.1 channels stained with bodipy-labeled senicapoc derivative 10b independent of the order of staining modality (Table 3). […] A successful co-staining was only counted when the distance between the signal peak maxima was ≤1 pixel.

logD [2]: > 5
density of labeled KCa3.1 channels ([3]; permeabilized A549-3R cells): 1.15 ion channels/µm^2
staining pattern of permeabilized A549-3R cells ([3]; saponin permeabilization, Protocol 5): expected punctate staining pattern
Average Green (in % ± SD) ([4]; Protocol 7a (antibody first)): 41.5% and 41.5 ± 4.75%
Average Red (in % ± SD) ([4]; Protocol 7a (antibody first)): 58.5 ± 9.60%
Average Green (in % ± SD) ([4]; Protocol 7b (10b first)): 41.4 ± 5.56%
Average Red (in % ± SD) ([4]; Protocol 7b (10b first)): 58.6 ± 8.52%
co-staining of a single KCa3.1 channel with both imaging tools (yellow dots) ([4]; distance between signal peak maxima ≤1 pixel counted as co-staining): hardly observed
SMILES: CCC1=C(C)C2=C(c3ccc(OCCOCCn4cc(COc5ccc(C(C(N)=O)(c6ccccc6)c6ccc(F)cc6)cc5)nn4)cc3)c3c(C)c(CC)c(C)n3[B-](F)(OC)[N+]2=C1C (stereo not drawn) [10b, 2-{4-[(1-{2-[4-(2,6-Diethyl-4-fluoro-4-methoxy-1,3,5,7-tetramethyl-4-bora-3a,4a-diaza-s-indacen-8-yl)phenoxy]ethoxyethyl}-1,2,3-triazol-4-yl)methoxy]phenyl}-2-(4-flluorophenyl)-2-phenylacetamide]
staining pattern after preincubation with senicapoc [1]: did not lead to a punctate staining pattern
